Data reported in article PMC9833666, “Designing and identifying β-hairpin peptide macrocycles with antibiotic potential” (Science Advances, 2023).
Entries after “also recorded” stand apart in the source; their conditions may differ. Like-named read-outs stand apart in the source and are kept apart here. Bridge positions count the residues as written; N and C are the ends. Ends that are not written are not given here. Peptide text beside a SMILES is read from it.

What was measured:
Escherichia coli W3110 = format: cell-based; settings: for Ec W3110 MIC MH: E. coli W3110, MH medium; for W3110 MIC MHII: E. coli W3110, MHII medium; for Ec W3110 MIC RPMI: E. coli W3110, RPMI medium
Procedure: MICs were performed by a modifiedClinical and Laboratory Standards Institute) procedure. […] Separately, E. coli W3110 or A. baumannii AB5075 was grown overnight in 5 ml of standard MH at 37°C. Cells from these cultures were diluted to a concentration of 5 × 10^5 to 6 × 10^5 cells/ml in either standard MH, MHII, RPMI, or fetal bovine serum, and 90 μl was added to each well of the 96-well plate containing diluted peptide. Plates were wrapped twice in parafilm and incubated at 37°C for 18 to 24 hours. Wells were examined by eye against wells with no bacteria for signs of growth. MICs were reported as the minimum concentration with no observable growth. In cases where triplicate samples differed, the concentration supported by the median of the three replicates was reported.

[1] = tested on: Single-donor human red blood cells; test: Hemolysis assay; format: cell-based
Summary of the method: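 Peptides at 300 μg/ml (SySA library) or 128 μg/ml (SySA-5 optimization library) were incubated in triplicate with washed single-donor RBCs (1 × 10^9 cells/ml) for 3 h at 37 °C. Supernatant A540 was background-normalized to PBS and expressed relative to 1% Triton X-100 (100% hemolysis).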

[2] = High-resolution LC-MS, percentage with intramolecular disulfide bond (%S-S); format: physicochemical
Procedure: Stock peptides were diluted into PBS (pH 7.4) at 0.1 mg/ml in a volume of 150 μl and placed into 2-ml autosampler vials with small volume inserts (Fisherbrand, 03-391-8). Samples were separated by a C8 LC column, and an extracted ion chromatogram was generated for the most prevalent charge state isotopes. Mass spectra were generated for each extracted LC peak using an Agilent Technologies 6546 Accurate Mass quadrupole orthogonal acceleration–time-of-flight LC-MS instrument. Analysis was performed using Agilent MassHunter Qualitative software v10. The isotope distribution for each LC peak from each sample was compared to predicted distributions created using Agilent’s Isotope Distribution Calculator. Percentages of molecules with disulfide bonds was determined by comparing the area under the curve for each LC peak containing a disulfide bond over the total area of all relevant peaks (sum area %) and reported as a mean of three technical replicates ± 1 SD.

[3] = tested on: Acinetobacter baumannii AB5075
E. coli W3110 = test: Surface-localized antimicrobial display (SLAY), log2 fold change in reads; format: cell-based, Escherichia coli; settings: 3 h 37°C; for l2FC_IPTG_15: induced (15 μM IPTG, low induction) vs uninduced; for l2FC_IPTG_100: induced (100 μM IPTG, high induction) vs uninduced
Procedure: SLAY procedures have been detailed previously ([25], [26]). Briefly, 100 μl of E. coli W3110 frozen cells containing the pooled SynCH plasmid library were recovered in 10 ml of LB supplemented with carbenicillin (75 μg/ml) for 2 hours. The culture was then back-diluted to an OD of 0.05, and three triplicate 5-ml cultures were set up in LB supplemented with carbenicillin (75 μg/ml). Triplicate reactions included uninduced (0 μM IPTG), low induction (15 μM IPTG), and high induction (100 μM IPTG). All triplicate cultures were then grown for 3 hours at 37°C. Plasmids from each triplicate culture were isolated via Miniprep, and Illumina sequencing primers (see table S6) were used to produce an amplicon via PCR from plasmids from each culture containing a unique i7 barcode identifier. Amplicons were then gel extracted, cleaned, concentrated, and sent to Genewiz for next-generation sequencing by Illumina HiSeq technology with 30% added Phi-X DNA.
Methods of SLAY analysis have been previously described elsewhere. Here, raw sequencing reads were trimmed of adapter sequences using Flexbar ([30]) and then assessed for quality via FastQC ([31]). Next, trimmed reads were mapped to a reference derived from all possible SynCH sequences using Kallisto ([32]). Last, log2 fold change estimates and other relevant statistics were calculated using DESeq2 ([33]).

[4] = Circular dichroism (CD) spectroscopy (secondary structure, aggregation); format: physicochemical; settings: CD at 450 µg/ml to 50 µg/ml, 10 mM potassium phosphate pH 7.4

In the case of “RGGRLCYCRRRFCVCVGR (disulfide (positions not given here)) [Protegrin]”, the Ec W3110 MIC MH (Escherichia coli W3110) is reported as 0.5 µg/mL, the W3110 MIC MHII (Escherichia coli W3110) is reported as 8 µg/mL and the Ec W3110 MIC RPMI (Escherichia coli W3110) is reported as 0.5 µg/mL. The hemolysis [1] was 41.84% and the “%S-S” value [2] was 100%.

For `CC(C)C[C@@H]1NC(=O)[C@H](CCCNC(=N)N)NC(=O)[C@H](C(C)C)NC(=O)[C@H](CCCNC(=N)N)NC(=O)[C@H](CC(C)C)NC(=O)[C@@H](N)CSSC[C@@H](C(=O)O)NC(=O)[C@H](C(C)C)NC(=O)[C@H](CCC(N)=O)NC(=O)[C@H](CC(C)C)NC(=O)[C@H](CO)NC(=O)[C@H](C(C)C)NC(=O)[C@H](CCCCN)NC(=O)[C@H](C(C)C)NC(=O)[C@H](CCCNC(=N)N)NC(=O)CNC(=O)[C@H](CCCNC(=N)N)NC(=O)[C@H](CCCNC(=N)N)NC(=O)[C@H](CC(N)=O)NC(=O)[C@H](CC(N)=O)NC1=O` [SySA-5] (H-CLRVRLNNRRGRVKVSLQVC-OH; disulfide 1-20; N-terminus and C-terminus assumed), the Ec W3110 MIC MH (Escherichia coli W3110) was 16 µg/mL, the W3110 MIC MHII (Escherichia coli W3110) was 128 µg/mL and the Ec W3110 MIC RPMI (Escherichia coli W3110) was 4 µg/mL. The “W3110 MIC MH” value (Escherichia coli W3110; E. coli W3110, standard Mueller-Hinton broth, 37°C, 18-24 h, median of n=3) was 16 µg/mL, the “W3110 MIC RPMI” value (Escherichia coli W3110; W3110) was 4 µg/mL and the “AB5075 MIC FBS” value ([3]; 100% fetal bovine serum, replicate 1) was >128 µg/mL. For the same compound, the “AB5075 MIC FBS” value ([3]; 100% fetal bovine serum, replicate 2) was >128 µg/mL, the “AB5075 MIC FBS” value ([3]; 100% fetal bovine serum, replicate 3) was >128 µg/mL and the “AB5075 MIC FBS” value ([3]; AB5075) was > 128 µg/mL. The “AB5075 MIC MH” value ([3]; AB5075) was 32 µg/mL, the “AB5075 MIC MH” value ([3]; Mueller-Hinton, replicate 1) was 64 µg/mL and the “AB5075 MIC MH” value ([3]; Mueller-Hinton, replicate 2) was 32 µg/mL. The “AB5075 MIC MH” value ([3]; Mueller-Hinton, replicate 3) was 32 µg/mL and the “%S-S” value [2] was 100%.

For `CC(C)C[C@@H]1NC(=O)CNC(=O)[C@H](CCCNC(=N)N)NC(=O)[C@H](CCCNC(=N)N)NC(=O)[C@H](CCCNC(=N)N)NC(=O)[C@H](CC(N)=O)NC(=O)[C@H](CC(N)=O)NC(=O)[C@H](CC(C)C)NC(=O)[C@H](CCCNC(=N)N)NC(=O)[C@H](C(C)C)NC(=O)[C@H](CCCNC(=N)N)NC(=O)[C@H](C(C)C)NC(=O)[C@@H](N)CSSC[C@@H](C(=O)O)NC(=O)[C@H](C(C)C)NC(=O)[C@H](CCC(N)=O)NC(=O)[C@H](CC(C)C)NC(=O)[C@H](CO)NC(=O)[C@H](C(C)C)NC(=O)[C@H](CCCNC(=N)N)NC1=O` [SySA-29] (H-CVRVRLNNRRRGLRVSLQVC-OH; disulfide 1-20; N-terminus and C-terminus assumed), the Ec W3110 MIC MH (Escherichia coli W3110) was 16 µg/mL, the W3110 MIC MHII (Escherichia coli W3110) was > 128 µg/mL and the Ec W3110 MIC RPMI (Escherichia coli W3110) was 8 µg/mL. The “W3110 MIC MH” value (Escherichia coli W3110; W3110) was 16 µg/mL, the “W3110 MIC RPMI” value (Escherichia coli W3110; W3110) was 8 µg/mL and the “%S-S” value [2] was 100%.

With `CC(C)C[C@@H]1NC(=O)[C@H](CO)NC(=O)[C@H](C(C)C)NC(=O)[C@H](CCCCN)NC(=O)[C@H](C(C)C)NC(=O)[C@H](CCCNC(=N)N)NC(=O)[C@H](CCCNC(=N)N)NC(=O)[C@H](CCCNC(=N)N)NC(=O)CNC(=O)[C@H](CC(N)=O)NC(=O)[C@H](CC(N)=O)NC(=O)[C@H](CC(C)C)NC(=O)[C@H](CCCNC(=N)N)NC(=O)[C@H](C(C)C)NC(=O)[C@H](CCCNC(=N)N)NC(=O)[C@H](C(C)C)NC(=O)[C@@H](N)CSSC[C@@H](C(=O)O)NC(=O)[C@H](C(C)C)NC(=O)[C@H](CCC(N)=O)NC1=O` [SySA-26] (H-CVRVRLNNGRRRVKVSLQVC-OH; disulfide 1-20; N-terminus and C-terminus assumed) the Ec W3110 MIC MH (Escherichia coli W3110) was 16 µg/mL, the W3110 MIC MHII (Escherichia coli W3110) was > 128 µg/mL and the Ec W3110 MIC RPMI (Escherichia coli W3110) was 16 µg/mL. For the same compound, the “W3110 MIC MH” value (Escherichia coli W3110; W3110) was 16 µg/mL, the “W3110 MIC RPMI” value (Escherichia coli W3110; W3110) was 16 µg/mL and the “%S-S” value [2] was 100%.

With “CLRIRVNDRRRGVKITLEVC (disulfide 1-20 (inferred))” the l2FC_IPTG_15 (E. coli W3110) was 0.457 and the l2FC_IPTG_100 (E. coli W3110) was 0.630.

For `CC[C@H](C)[C@@H]1NC(=O)[C@H](CCCCN)NC(=O)[C@H](C(C)C)NC(=O)CNC(=O)[C@H](CCCNC(=N)N)NC(=O)[C@H](CCCNC(=N)N)NC(=O)[C@H](CCCNC(=N)N)NC(=O)[C@H](CC(N)=O)NC(=O)[C@H](CC(N)=O)NC(=O)[C@H](CC(C)C)NC(=O)[C@H](CCCNC(=N)N)NC(=O)[C@H](C(C)C)NC(=O)[C@H](CCCNC(=N)N)NC(=O)[C@H](C(C)C)NC(=O)[C@@H](N)CSSC[C@@H](C(=O)O)NC(=O)[C@H](C(C)C)NC(=O)[C@H](CCC(N)=O)NC(=O)[C@H](CC(C)C)NC(=O)[C@H](CO)NC1=O` [SySA-49] (H-CVRVRLNNRRRGVKISLQVC-OH; disulfide 1-20; N-terminus and C-terminus assumed), the Ec W3110 MIC MH (Escherichia coli W3110) was 32 µg/mL, the W3110 MIC MHII (Escherichia coli W3110) was > 128 µg/mL and the Ec W3110 MIC RPMI (Escherichia coli W3110) was 8 µg/mL. For the same compound, the “W3110 MIC MH” value (Escherichia coli W3110; W3110) was 32 µg/mL, the “W3110 MIC RPMI” value (Escherichia coli W3110; W3110) was 8 µg/mL and the “molar ellipticity of CD spectrum at different concentrations (aggregation)” value [4] was “remained relatively constant regardless of increased concentration; also recorded: equivalent at increased and reduced concentrations”. The “%S-S” value [2] was 91.4%.

With `CC[C@H](C)[C@@H]1NC(=O)[C@H](CCCCN)NC(=O)[C@H](CC(C)C)NC(=O)CNC(=O)[C@H](CCCNC(=N)N)NC(=O)[C@H](CCCNC(=N)N)NC(=O)[C@H](CCCNC(=N)N)NC(=O)[C@H](CC(N)=O)NC(=O)[C@H](CC(N)=O)NC(=O)[C@H](CC(C)C)NC(=O)[C@H](CCCNC(=N)N)NC(=O)[C@H](C(C)C)NC(=O)[C@H](CCCNC(=N)N)NC(=O)[C@H](CC(C)C)NC(=O)[C@@H](N)CSSC[C@@H](C(=O)O)NC(=O)[C@H](C(C)C)NC(=O)[C@H](CCC(N)=O)NC(=O)[C@H](CC(C)C)NC(=O)[C@H](CO)NC1=O` [SySA-61] (H-CLRVRLNNRRRGLKISLQVC-OH; disulfide 1-20; N-terminus and C-terminus assumed) the Ec W3110 MIC MH (Escherichia coli W3110) was 32 µg/mL, the W3110 MIC MHII (Escherichia coli W3110) was > 128 µg/mL and the Ec W3110 MIC RPMI (Escherichia coli W3110) was 8 µg/mL. The “W3110 MIC MH” value (Escherichia coli W3110; W3110) was 32 µg/mL, the “W3110 MIC RPMI” value (Escherichia coli W3110; W3110) was 8 µg/mL and the “%S-S” value [2] was 91.5%.

“CRIKIDVDDGRRRVRLELQC (disulfide 1-20 (inferred))” showed a l2FC_IPTG_15 (E. coli W3110) of 0.041 and a l2FC_IPTG_100 (E. coli W3110) of 0.249.

Compound “CVTIRVDNGGGGLRITLQVC (disulfide 1-20 (inferred))” has a l2FC_IPTG_15 (E. coli W3110) of -0.299 and a l2FC_IPTG_100 (E. coli W3110) of 0.025.

For “CRIKINIDDRGGTVKLEVQC (disulfide 1-20 (inferred))”, the l2FC_IPTG_15 (E. coli W3110) was -0.180 and the l2FC_IPTG_100 (E. coli W3110) was -0.210.

“CLRIRVDDRRRRVRITLQVC (disulfide 1-20 (inferred))” gave a l2FC_IPTG_15 (E. coli W3110) of 0.055 and a l2FC_IPTG_100 (E. coli W3110) of 0.322.
